# From patent US6670446B1, “N1 modified glycopeptides” (Eli Lilly and Company, priority 1998, dated 2003)
# Columns and labels:
# Assay type in all cases: cell-based
# [1] = system: Staphylococcus aureus 446; test: MIC, standard broth micro-dilution assay, SA 446
# Protocol: (§1) The antibacterial efficacy of the present compounds is illustrated by Table III. The minimal inhibitory concentrations (MICs) were determined using a standard broth micro-dilution assay.
# [2] = system: Staphylococcus haemolyticus 105; test: MIC, standard broth micro-dilution assay, SH 105
# Protocol: as §1
# [3] = system: Staphylococcus aureus X400; test: MIC, standard broth micro-dilution assay, SA X400
# Protocol: as §1
# [4] = system: Enterococcus faecalis 276; test: MIC, standard broth micro-dilution assay, EF 276
# Protocol: as §1
# [5] = system: Enterococcus faecium 180-1; test: MIC, standard broth micro-dilution assay, EF 180-1
# Protocol: as §1
# [6] = system: Haemophilus influenzae RD; test: MIC, standard broth micro-dilution assay, HFRD
# Protocol: as §1
# [7] = system: Enterococcus faecalis 2041; test: MIC, standard broth micro-dilution assay, EF 2041
# Protocol: as §1
# [8] = system: Staphylococcus aureus SA1199; test: MIC, standard broth micro-dilution assay, SA 1199
# Protocol: as §1
# [9] = system: Staphylococcus haemolyticus 415; test: MIC, standard broth micro-dilution assay, SH 415
# Protocol: as §1
# Enterococcus faecium 180 = test: MIC, standard broth micro-dilution assay, EF 180
# Protocol: as §1
# [10] = system: Staphylococcus aureus 489; test: MIC, standard broth micro-dilution assay, SA 489
# Protocol: as §1
# [11] = system: Staphylococcus aureus SA1199A; test: MIC, standard broth micro-dilution assay, SA 1199A
# Protocol: as §1
# [12] = system: Enterococcus gallinarum 245; test: MIC, standard broth micro-dilution assay, EG 245
# Protocol: as §1
# [13] = system: Staphylococcus aureus 447; test: MIC, standard broth micro-dilution assay, SA 447
# Protocol: as §1
# [14] = system: Sensitive Enterococcus faecium and faecalis; test: MIC, standard broth micro-dilution assay, Sensitive; details: geometric mean of 4-6 isolates
# Protocol: as §1
# [15] = system: Resistant Enterococcus faecium and faecalis; test: MIC, standard broth micro-dilution assay, Resistant; details: geometric mean of 4-6 isolates
# Protocol: as §1
# [16] = system: Staphylococcus aureus X778; test: MIC, standard broth micro-dilution assay, SA X778
# Protocol: as §1
# [17] = system: Staphylococcus aureus 491; test: MIC, standard broth micro-dilution assay, SA 491
# Protocol: as §1
# [18] = system: Staphylococcus aureus S13E
# Protocol: as §1
# [19] = system: Staphylococcus epidermidis 270; test: MIC, standard broth micro-dilution assay, SE 270
# Protocol: as §1
# Escherichia coli EC14 = test: MIC, standard broth micro-dilution assay, EC 14
# Protocol: as §1
Structure (SMILES),"minimal inhibitory concentration (MIC), SA 446 [1]","minimal inhibitory concentration (MIC), SH 105 [2]","minimal inhibitory concentration (MIC), SA X400 [3]","minimal inhibitory concentration (MIC), EF 276 [4]","minimal inhibitory concentration (MIC), EF 180-1 [5]","minimal inhibitory concentration (MIC), HFRD [6]","minimal inhibitory concentration (MIC), EF 2041 [7]","minimal inhibitory concentration (MIC), SA 1199 [8]","minimal inhibitory concentration (MIC), SH 415 [9]","minimal inhibitory concentration (MIC), EF 180 (Enterococcus faecium 180)","minimal inhibitory concentration (MIC), SA 489 [10]","minimal inhibitory concentration (MIC), SA 1199A [11]","minimal inhibitory concentration (MIC), EG 245 [12]","minimal inhibitory concentration (MIC), SA 447 [13]","minimal inhibitory concentration (MIC), Sensitive [14]","minimal inhibitory concentration (MIC), Resistant [15]","minimal inhibitory concentration (MIC), SA X778 [16]","minimal inhibitory concentration (MIC), SA 491 [17]","minimal inhibitory concentration (MIC), SA S13E [18]","minimal inhibitory concentration (MIC), SE 270 [19]",also measured
"CC(C)CCC(=O)NC1C(=O)NC(CC(N)=O)C(=O)NC2C(=O)NC3C(=O)NC(C(=O)NC(C(=O)O)c4cc(O)cc(O)c4-c4cc3ccc4O)C(OC3CC(C)(N)C(O)C(C)O3)c3ccc(c(Cl)c3)Oc3cc2cc(c3OC2OC(CO)C(O)C(O)C2OC2CC(C)(NCc3ccc(-c4ccccc4)cc3)C(O)C(C)O2)Oc2ccc(cc2Cl)C1O (stereo not drawn) [Example 5, N^1-(4-methyl-n-pentanoyl)-N^DISACC-(p-phenylbenzyl)desleucylA82846B]",0.125,≦.06,≦.06,1,≦.06,>64,≦.06,0.25,1,4,0.125,≦.06,0.25,≦.06,0.44,27,0.125,≦.06,0.125,0.25,"minimal inhibitory concentration (MIC), EC 14 (Escherichia coli EC14): >64"
"CC1OC(OC2c3ccc(c(Cl)c3)Oc3cc4cc(c3OC3OC(CO)C(O)C(O)C3OC3CC(C)(NCc5ccc(-c6ccccc6)cc5)C(O)C(C)O3)Oc3ccc(cc3Cl)C(O)C(NC(=O)c3ccc(-c5ccccc5)cc3)C(=O)NC(CC(N)=O)C(=O)NC4C(=O)NC3C(=O)NC2C(=O)NC(C(=O)O)c2cc(O)cc(O)c2-c2cc3ccc2O)CC(C)(N)C1O (stereo not drawn) [Example 6, N^1-(p-phenylbenzoyl)-N^DISACC-(p-phenylbenzyl)desleucylA82846B]",1,0.5,1,2,0.25,>64,2,0.5,2,2,2,0.125,1,2,3.5,38,0.5,0.5,1,0.5,"minimal inhibitory concentration (MIC), EC 14 (Escherichia coli EC14): >64"
"CC(C)CCC(=O)NC1C(=O)NC(CC(N)=O)C(=O)NC2C(=O)NC3C(=O)NC(C(=O)NC(C(=O)O)c4cc(O)cc(O)c4-c4cc3ccc4O)C(OC3CC(C)(N)C(O)C(C)O3)c3ccc(c(Cl)c3)Oc3cc2cc(c3OC2OC(CO)C(O)C(O)C2OC2CC(C)(NCc3ccc(-c4ccc(Cl)cc4)cc3)C(O)C(C)O2)Oc2ccc(cc2Cl)C1O (stereo not drawn) [Example 7, N^1-(4-methyl-n-pentanoyl)-N^DISACC-[p-(p-chlorophenyl)benzyl]desleucylA82846B]",0.5,≦.06,0.5,≦.06,≦.06,64,≦.06,1,1,1,1,≦.06,≦.06,0.5,0.22,3.4,1,0.125,0.5,≦.06,"minimal inhibitory concentration (MIC), EC 14 (Escherichia coli EC14): >64"
"CC1OC(OC2c3ccc(c(Cl)c3)Oc3cc4cc(c3OC3OC(CO)C(O)C(O)C3OC3CC(C)(NCc5ccc(-c6ccc(Cl)cc6)cc5)C(O)C(C)O3)Oc3ccc(cc3Cl)C(O)C(NC(=O)CCCCCCCc3ccccc3)C(=O)NC(CC(N)=O)C(=O)NC4C(=O)NC3C(=O)NC2C(=O)NC(C(=O)O)c2cc(O)cc(O)c2-c2cc3ccc2O)CC(C)(N)C1O (stereo not drawn) [Example 8, N^1-(8-phenyl-n-octanoyl)-N^DISACC-[p-(p-chlorophenyl)benzyl]desleucylA82846B]",16,2,8,1,1,>64,2,4,8,2,8,2,2,8,2,4,4,4,8,8,"minimal inhibitory concentration (MIC), EC 14 (Escherichia coli EC14): >64"
"CC1OC(OC2c3ccc(c(Cl)c3)Oc3cc4cc(c3OC3OC(CO)C(O)C(O)C3OC3CC(C)(NCc5ccc(-c6ccc(Cl)cc6)cc5)C(O)C(C)O3)Oc3ccc(cc3Cl)C(O)C(NC(=O)CCCCCCNC(=O)OC(C)(C)C)C(=O)NC(CC(N)=O)C(=O)NC4C(=O)NC3C(=O)NC2C(=O)NC(C(=O)O)c2cc(O)cc(O)c2-c2cc3ccc2O)CC(C)(N)C1O (stereo not drawn) [Example 9, N^1- [7-(tert-butoxycarboxamido)-n-heptanoyl]-N^DISACC-[p-(p-chlorophenyl)benzyl]desleucylA82846B]",2,0.5,2,1,0.5,>64,0.5,1,1,2,1,0.25,1,2,0.66,4.8,1,1,1,1,"minimal inhibitory concentration (MIC), EC 14 (Escherichia coli EC14): >64"
"CC(C)CC(NC(=O)OC(C)(C)C)C(=O)NC1C(=O)NC(CC(N)=O)C(=O)NC2C(=O)NC3C(=O)NC(C(=O)NC(C(=O)O)c4cc(O)cc(O)c4-c4cc3ccc4O)C(OC3CC(C)(N)C(O)C(C)O3)c3ccc(c(Cl)c3)Oc3cc2cc(c3OC2OC(CO)C(O)C(O)C2OC2CC(C)(NCc3ccc(-c4ccccc4)cc3)C(O)C(C)O2)Oc2ccc(cc2Cl)C1O [Example 11, N^1-(N-BOC-L-leucine) derivative of N^DISACC-(p-phenylbenzyl)desleucylA82846B]",1,0.5,1,2,0.25,>64,1,1,1,8,2,1,1,1,1.7,45,0.5,2,1,0.5,"minimal inhibitory concentration (MIC), EC 14 (Escherichia coli EC14): >64"
